This is an account of results in patent US5547962A, “5-amino-8-methyl-7-pyrrolidinylquinoline-3-carboxylic acid derivative” (priority 1993, dated 1996).

Each structure is given as a SMILES string. ≈ marks a conversion by molar mass, not a printed value. Entries after “also recorded” stand apart in the source; their conditions may differ. Where two headings read alike, the source gives them in different places.

Data set [1] deals with CHL cells. As to the kind of experiment: Chromosomal aberration test with a Chinese hamster lung cell line (CHL). Type of data set: cell-based. On the procedure:
The chromosomal aberration test was conducted with a Chinese hamster lung cell line (CHL). 2-(2-Furyl)-3-(5-nitro-2-furyl)acrylamide was used as a positive control. Cells treated with the test compounds were cultured for 6 h at 37° C. in 5% CO2 -humidified air. Following the 6 h treatment the cells were washed. Fresh medium was added to the washed cells and they were cultured for a further 18 h. Colcemide was added to the cultures 2 h before the fixation of chromosome preparation, in order to collect metaphase cells.

The subject of data set [2] is polychromatic erythrocytes (PCEs). As to the kind of experiment: Micronucleus test, bone marrow of mice. As to conditions: percent of the number of MNPCEs per 1,000 PCEs; 250 mg/kg i.p., 24 h. Type of data set: in vivo, BDF 1 mice. On the procedure:
Nine-week-old male BDF 1 mice were used in this test. The test compounds were injected intraperitoneally with a dose of 250 mg/kg. After 24 h mice were sacrificed and the bone marrow of the femur was collected. Bone marrow smears were fixed on the slides with methanol and stained with Giemsa according to the usual method. For each animal, the number of micronucleated polychromatic erythrocytes (MNPCEs) per 1,000 polychromatic erythrocytes (PCEs) was counted under the microscope. Cyclophosphamide was used as a positive control.

Data set [3] relates to Male Hartley guinea pigs. Type of data set: in vivo. Particulars: 10 mg/kg i.v. On the procedure:
Male Hartley guinea pigs were intravenously administered test compounds at a dose of 10 mg/kg, and immediately exposed to UVA on their backs for 90 minutes.

Data set [4] deals with S. aureus FDA 209P JC-1. As to the kind of experiment: Antibacterial activity, MIC by agar dilution. Type of data set: cell-based. As to conditions: Staphylococcus aureus, FDA209P; laboratory standard strain, gram +. The source says: (§1) The strains employed were as follows:
(§2) Staphylococcus aureus (S. aureus)

Data set [5] relates to S. aureus HPC292. As to the kind of experiment: Antibacterial activity, MIC by agar dilution. Type of data set: cell-based. Particulars: Staphylococcus aureus, clinically isolated strain, gram +.
From the text: as §1, §2

In data set [6] the test system is S. aureus HPC308. The data set can be described thus: Antibacterial activity, MIC by agar dilution. Type of data set: cell-based. Particulars: Staphylococcus aureus, clinically isolated strain, gram +.
From the text: as §1, §2

In data set [7] the test system is S. aureus HPC527. The data set can be described thus: Antibacterial activity, MIC by agar dilution. Type of data set: cell-based. As to conditions: Staphylococcus aureus, clinically isolated strain, gram +.
From the text: as §1, §2

Data set [8] relates to E. coli NIHJ JC-2. As to the kind of experiment: Antibacterial activity, MIC by agar dilution. Particulars: Escherichia coli, NIHJJC2; laboratory standard strain, gram -. Type of data set: cell-based.
From the text: as §1
Escherichia coli (E. coli)

Data set [9] has as its system K. pneumoniae HNR828. The data set can be described thus: Antibacterial activity, MIC by agar dilution. Type of data set: cell-based. Particulars: Klebsiella pneumoniae, clinically isolated strain, gram -.
From the text: as §1
(§3) Klebsiella pneumoniae (K. pneumoniae)

Data set [10] has as its system K. pneumoniae HNR858. As to the kind of experiment: Antibacterial activity, MIC by agar dilution. Type of data set: cell-based. As to conditions: Klebsiella pneumoniae, clinically isolated strain, gram -.
From the text: as §1, §3

The subject of data set [11] is K. pneumoniae HNR869. As to the kind of experiment: Antibacterial activity, MIC by agar dilution. Type of data set: cell-based. Particulars: Klebsiella pneumoniae, clinically isolated strain, gram -.
From the text: as §1, §3

The test system of data set [12] is K. pneumoniae PCI-602. As to the kind of experiment: Antibacterial activity, MIC by agar dilution. Type of data set: cell-based. Particulars: Klebsiella pneumoniae, PCI602; laboratory standard strain, gram -.
From the text: as §1, §3

In data set [13] the test system is S. marcescens HNR1544. As to the kind of experiment: Antibacterial activity, MIC by agar dilution. Particulars: Serratia marcescens, clinically isolated strain, gram -. Type of data set: cell-based.
From the text: as §1
(§4) Serratia marcescens (S. marcescens)

Data set [14] has as its system S. marcescens HNR1767. As to the kind of experiment: Antibacterial activity, MIC by agar dilution. Type of data set: cell-based. As to conditions: Serratia marcescens, clinically isolated strain, gram -.
From the text: as §1, §4

The subject of data set [15] is S. marcescens HNR1792. As to the kind of experiment: Antibacterial activity, MIC by agar dilution. Type of data set: cell-based. Particulars: Serratia marcescens, clinically isolated strain, gram -.
From the text: as §1, §4

For data set [16], the system named is S. marcescens IAM 1184. The data set can be described thus: Antibacterial activity, MIC by agar dilution. As to conditions: Serratia marcescens, IAM1184; laboratory standard strain, gram -. Type of data set: cell-based.
From the text: as §1, §4

The subject of data set [17] is E. cloacae 963. The data set can be described thus: Antibacterial activity, MIC by agar dilution. Type of data set: cell-based. Particulars: Enterobacter cloacae, laboratory standard strain, gram -.
From the text: as §1
(§5) Enterobacter cloacae (E. cloacae)

In data set [18] the test system is E. cloacae HNR1939. As to the kind of experiment: Antibacterial activity, MIC by agar dilution. Type of data set: cell-based. As to conditions: Enterobacter cloacae, clinically isolated strain, gram -.
From the text: as §1, §5

Data set [19] relates to E. cloacae HNR1941. The data set can be described thus: Antibacterial activity, MIC by agar dilution. Type of data set: cell-based. Particulars: Enterobacter cloacae, clinically isolated strain, gram -.
From the text: as §1, §5

Data set [20] deals with E. cloacae HNR1946. The data set can be described thus: Antibacterial activity, MIC by agar dilution. As to conditions: Enterobacter cloacae, clinically isolated strain, gram -. Type of data set: cell-based.
From the text: as §1, §5

Data set [21] concerns E. faecalis HPC948. The data set can be described thus: Antibacterial activity, MIC by agar dilution. Type of data set: cell-based. Particulars: Enterococcus faecalis, clinically isolated strain, gram +.
From the text: as §1
(§6) Enterococcus faecalis (E. faecalis)

Data set [22] relates to E. faecalis HPC975. The data set can be described thus: Antibacterial activity, MIC by agar dilution. Type of data set: cell-based. Particulars: Enterococcus faecalis, clinically isolated strain, gram +.
From the text: as §1, §6

In data set [23] the test system is E. faecalis HPC984. The data set can be described thus: Antibacterial activity, MIC by agar dilution. Type of data set: cell-based. As to conditions: Enterococcus faecalis, clinically isolated strain, gram +.
From the text: as §1, §6

Data set [24] deals with A. calcoaceticus HNR904. As to the kind of experiment: Antibacterial activity, MIC by agar dilution. As to conditions: Acinetobacter calcoaceticus, clinically isolated strain, gram -. Type of data set: cell-based.
From the text: as §1
(§7) Acinetobacter calcoaceticus (A. calcoaceticus)

The test system of data set [25] is A. calcoaceticus HNR916. As to the kind of experiment: Antibacterial activity, MIC by agar dilution. Type of data set: cell-based. As to conditions: Acinetobacter calcoaceticus, clinically isolated strain, gram -.
From the text: as §1, §7

Data set [26] has as its system A. calcoaceticus HNR939. As to the kind of experiment: Antibacterial activity, MIC by agar dilution. Type of data set: cell-based. As to conditions: Acinetobacter calcoaceticus, clinically isolated strain, gram -.
From the text: as §1, §7

Data set [27] has as its system clinically isolated strains (HPC527, HPC308 and HPC292) of S aureus. As to the kind of experiment: Comparison with analogous compounds: antibacterial activity (MIC) against clinically isolated strains of S. aureus. Type of data set: cell-based, Staphylococcus aureus. Particulars: comparison to Tables 7 and 8. The method, then:
Minimum inhibitory concentrations (MICs) of test compounds were determined by agar dilution procedure as described in the standard method of the Japan Society of Chemotherapy (Chemotherapy (Tokyo), 29,1, 76 (1981)). The strains employed were as follows:
All the data of the antibacterial activity, chromosomal aberration activity, phototoxicity and inducement of convulsions were obtained from the same tests methods as those described above. Among this, the data of the antibacterial activity shown in Tables 7 and 8 are MICs (minimum inhibitory concentrations) value against clinically isolated strains (HPC527, HPC308 and HPC292) of S aureus which is a representative gram-positive bacteria.

Data set [28] is described as follows: Tissue distribution after oral administration, HPLC. Type of data set: in vivo, Sprague-Dawley rats. Particulars: for Kp: po, 5 mg/kg. The method, then:
Seven-week-old male Sprague-Dawley rats were used. The test compounds were orally administered at a dose of 5 mg/kg to rats fasted overnight. At intervals of 0.083, 0.25, 0.5, 1, 2, 4, 6, 8, 12 and 24 h after administration, the rats were anesthetized with ether and blood samples were taken from the abdominal aorta. Plasma samples were obtained from the blood samples in the usual way. The lungs and kidneys were removed after collection of blood, and homogenated with 4 ml and 7 ml of 1 M HCl-citrate buffer (pH 4.0), respectively.
The concentration of the test compounds in the biological fluids (plasma and in each tissue tested) was determined by HPLC method. Hydrochloric acid and ether were added to 0.5 ml of plasma or 0.5 g of each tissue homogenate. The mixture was shaken and centrifuged. After the removal of the organic phase, aq. NaOH solution, phosphate buffer (pH 7.0) and chloroform were added to the aqueous phase. The mixture was shaken and centrifuged. The organic phase was then concentrated. The residue was dissolved and subjected to HPLC. The concentration of the test compounds in each biological fluid at Tmax (time of the maximum concentration in plasma) is shown in Table 6.

For data set [29], the system named is CHL cells. Particulars: 31th ICAAC, Abstract No. 1507 (1991); cited from earlier work.
[30] abbreviates: times higher than ciprofloxacin, at Tmax.

Consider `Cc1c(N2C[C@@H](N)C3(CC3)C2)c(F)c(N)c2c(=O)c(C(=O)O)cn(C3CC3)c12` [Example 10, 5-Amino-7-((S)-7-amino-5-azaspiro[2.4]hept-5-yl)-1-cyclopropyl-6-fluoro-1,4-dihydro-8-methyl-4-oxoquinoline-3-carboxylic acid], for which, in [1], the “toxicity (chromosomal aberration), in words” value is reported as “did not show”. Besides, in [2], the “Incidence of MNPCEs” value is given as 0.18%. In data set [3] (UVA 90 minutes, 24 h after irradiation), the “Phototoxicity: number of animals with erythemas/number of animals tested” value is reported as 0/5. Also, the MIC came to 0.025 µg/mL in [4]; 1.56 µg/mL in [5]; 0.39 µg/mL in data set [6]; 0.025 µg/mL in data set [7]; 0.012 µg/mL (≈ 0.0311 µM) in data set [8]; 3.13 µg/mL (≈ 8.1 µM) in data set [9]. Further, the MIC in [10] amounted to 0.2 µg/mL (≈ 0.518 µM); in data set [11] it was 1.56 µg/mL (≈ 4.04 µM); in data set [12], 0.003 µg/mL (≈ 0.00776 µM); in data set [13], 0.05 µg/mL (≈ 0.129 µM); in [14], 6.25 µg/mL (≈ 16.2 µM); in data set [15], 3.13 µg/mL (≈ 8.1 µM). For the same compound, the MIC in data set [16] is 0.1 µg/mL (≈ 0.259 µM); in data set [17] it was 0.025 µg/mL (≈ 0.0647 µM); in data set [18], 0.1 µg/mL (≈ 0.259 µM); in [19], 3.13 µg/mL (≈ 8.1 µM); in [20], 0.2 µg/mL (≈ 0.518 µM); in data set [21], 0.39 µg/mL. Besides, the MIC is 1.56 µg/mL in data set [22]; 0.1 µg/mL in [23]; 1.56 µg/mL (≈ 4.04 µM) in data set [24]; 0.012 µg/mL (≈ 0.0311 µM) in data set [25]; 0.2 µg/mL (≈ 0.518 µM) in data set [26]. In data set [27], the “antibacterial activity compared with reference compound, in words” value is “higher antibacterial activity than the analogous reference compound B; also recorded: excellent antibacterial activity as potent as the analogous reference compound C; also recorded: much higher antibacterial activity than the analogous reference compound I”. Further, in data set [28] (plasma, rat, 5 mg/kg oral), the Tmax is 15 min. For the same compound, the Cmax in data set [28] (plasma, rat, 5 mg/kg oral, read-out: Concentration in plasma at Tmax) is 580 ng/mL. The “Concentration in kidney at Tmax” value in data set [28] (rat, 5 mg/kg oral) is 8.5 µg/g. Besides, the “Concentration in lung at Tmax” value in data set [28] (rat, 5 mg/kg oral) is 4.0 µg/g. Also, the Kp in [28] (rat, kidney, read-out: concentration ratio (tissue/plasma), kidney) amounted to 15; in [28] (rat, lung, read-out: concentration ratio (tissue/plasma), lung), 6.9. The “a/b: concentration ratio (tissue/plasma) kidney, Example 10/ciprofloxacin” value in data set [28] (setting [30]) was found to be 4.2. Further, the “a/b: concentration ratio (tissue/plasma) lung, Example 10/ciprofloxacin” value in data set [28] (setting [30]) was 8.6. Also, the “a/b: kidney concentration, Example 10/ciprofloxacin” value in data set [28] (setting [30]) is 7.4. Moreover, the “a/b: lung concentration, Example 10/ciprofloxacin” value in [28] (setting [30]) was determined as 16.

For the compound `Cc1c(N2C[C@@H](N)C3(CC3)C2)c(F)cc2c(=O)c(C(=O)O)cn(C3CC3)c12` [Reference Compound C, 7-((S)-7-amino-5-azaspiro[2.4]hept-5-yl)-1-cyclopropyl-6-fluoro-1,4-dihydro-8-methyl-4-oxoquinoline-3-carboxylic acid], the “toxicity (chromosomal aberration), in words” value in data set [1] is reported as “observed”. For the same compound, the “phototoxicity, in words” value in data set [3] (UVA) is “no phototoxicity”. For the same compound, the “death of guinea pigs” value in data set [3] (phototoxicity test) is reported as “death of one guinea pig out of five”. In data set [29], the “chromosomal aberrational activity, in words” value was “potent chromosomal aberrational activity”.
